Laboratory results taken from patent US7709223B2, “Method for detecting bacteria with chromogenic substrates for β-D-ribofuranosidase” (priority 2001, dated 2010).
Structures can show the parent of a compound that is named as a salt.

Legend:
E. coli [1] = test: Aluminium salt-containing medium with mixed culture; format: cell-based; details: mixed culture of E. coli and Yersinia enterocolitica
Description: (§1) The substrate was evaluated using the general method of example 2 but using a range of different metal salts and a culture of E. coli alone. The metal salts shown in Table 5, below, were used at a concentration of 500 mg/l.
(§2) When the aluminium salt-containing medium was used with a mixed culture of E. coli and Yersinia enterocolitica, the E. coli colonies were bright yellow and stood out very clearly.

Yersinia enterocolitica = test: as above; format: cell-based; details: mixed culture of E. coli and Yersinia enterocolitica
Description: as §1, §2

[2] = test system: β-D-ribofuranosidase negative strains; test: Further substrates on agar plates, colony appearance; format: cell-based
Description: (§3) The chromogenic β-D-ribofuranoside substrate was added to Columbia agar at a substrate concentration of 300 mg/l. Ferric ammonium citrate was included at 500 mg/l. All ingredients were autoclaved at 116° C. for 20 minutes to ensure sterilisation. Agar plates were then prepared in 90 mm petri dishes. The substrate caused a yellow colouration of the agar.
(§4) For each strain tested, a bacterial suspension was prepared in sterile deionised water at an inoculum of approximately 1.5×10^8 colony forming units per ml. This was achieved using a densitometer. 1 μl of each bacterial suspension was then inoculated onto each plate using a multipoint inoculator. Strains were inoculated in parallel onto Columbia agar containing ferric ammonium citrate with no substrate (negative control).
(§5) After 18 hours incubation, strains were examined visually for the presence of colour. Any strains producing a black colouration on substrate containing media but not on the negative control plates were deemed to be hydrolysing the substrate.
(§6) The same evaluation method as described above in Example 2 was utilised.

[3] = test system: β-D-ribofuranosidase positive strains; test: as above; format: cell-based
Description: as §3, §4, §5, §6

E. aerogenes = test: Hydrolysis on Columbia agar with ferric ammonium citrate; format: cell-based; details: E. aerogenes; weaker reaction
Description: as §3, §4, §5

E. coli [4] = test: as above; format: cell-based; details: E. coli; weaker reaction
Description: as §3, §4, §5

K. pneumoniae = test: as above; format: cell-based; details: K. pneumoniae
Description: as §3, §4, §5

Shigella sonnei = test: as above; format: cell-based; details: S. sonnei
Description: as §3, §4, §5

E. coli [5] = test: Evaluation with metal salts forming chelates, colour of colonies; format: cell-based
Description: as §3, §4, §5, §1

AMP nucleosidase = AMP nucleosidase (Escherichia coli, UniProt P0AE12); details: N-ribohydrolase from E. coli, AMP nucleosidase (Schramm et al, WO97/31008); cited from earlier work
Chain of AMP nucleosidase (P0AE12 whole entry): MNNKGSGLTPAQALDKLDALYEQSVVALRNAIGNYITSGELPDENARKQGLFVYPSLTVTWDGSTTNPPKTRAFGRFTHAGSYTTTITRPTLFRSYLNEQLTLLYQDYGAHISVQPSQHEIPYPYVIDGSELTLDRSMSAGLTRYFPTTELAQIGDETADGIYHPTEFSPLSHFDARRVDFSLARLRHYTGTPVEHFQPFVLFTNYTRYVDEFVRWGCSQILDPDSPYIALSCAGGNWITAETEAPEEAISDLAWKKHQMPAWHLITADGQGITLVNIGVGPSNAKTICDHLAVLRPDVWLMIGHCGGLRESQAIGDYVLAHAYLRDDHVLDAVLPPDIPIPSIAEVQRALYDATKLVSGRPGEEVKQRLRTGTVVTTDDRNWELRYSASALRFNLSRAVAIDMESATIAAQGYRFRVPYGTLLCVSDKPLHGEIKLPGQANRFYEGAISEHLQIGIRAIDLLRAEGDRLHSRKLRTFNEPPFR

COc1c(-c2ccc(O[C@@H]3O[C@H](CO)[C@@H](O)[C@H]3O)c(O)c2)oc2ccccc2c1=O
Colour of E. coli colonies (E. coli [1]): bright yellow
Colour of Y. enterocolitica colonies (Yersinia enterocolitica): colourless

3,4-Dihydroxybenzaldehydesemicarbazone-4-β-D-ribofuranoside [Example 1.5]
Colony appearance [2]: cream colonies
Colony appearance [3]: diffuse brown colonies

O=Cc1ccc(OC2OC(CO)C(O)C2O)c(O)c1 [Example 1.4, 3,4-Dihydroxybenzaldehyde-4β-D-ribofuranoside sodium salt]
Colony appearance (E. aerogenes): paler colonies
Colony appearance (E. coli [4]): paler colonies
Colony appearance (K. pneumoniae): Dark brown colonies
Colony appearance (Shigella sonnei): Dark brown colonies
Colony appearance [2]: cream colonies

O=C1/C(=C/c2ccc(OC3OC(CO)C(O)C3O)c(O)c2)Oc2ccccc21 [Example 1.7, 3′,4′-Dihydroxyaurone-4′-β-D-ribofuranoside]
Colony appearance [3]: pale brown colonies

COc1c(-c2ccc(O[C@@H]3O[C@H](CO)[C@@H](O)[C@H]3O)c(O)c2)oc2ccccc2c1=O [Example 6, 3′4′-dihydroxy-3-methoxy-flavone-4′-β-D-ribofuranoside]
Colour of colonies (E. coli [5]; No metal): Diffuse yellow
Colour of colonies (E. coli [5]; metal salt Al 500 mg/l): Yellow
Colour of colonies (E. coli [5]; metal salt Ba 500 mg/l): Yellow
Colour of colonies (E. coli [5]; metal salt Bi 500 mg/l): Rusty orange
Colour of colonies (E. coli [5]; metal salt Co 500 mg/l): No growth
Colour of colonies (E. coli [5]; metal salt Fe 500 mg/l): Brown
Colour of colonies (E. coli [5]; metal salt Mn 500 mg/l): Pale orange
Colour of colonies (E. coli [5]; metal salt Sn 500 mg/l): Yellow
Colour of colonies (E. coli [5]; metal salt Sr 500 mg/l): Yellow
Colour of colonies (E. coli [5]; metal salt Zn 500 mg/l): No growth

O=[N+]([O-])c1ccc(O[C@@H]2O[C@H](COP(=O)(O)O)[C@@H](O)[C@H]2O)cc1 [p-Nitrophenyl β-D-ribofuranoside-5-phosphate]
Activity as substrate (AMP nucleosidase): inactive
